Experimental data: patent publication US20260042764A1, “COMPOSITIONS AND METHODS FOR INHIBITION OF KRAS” (TheRas, Inc., priority 2022, published 2026)
pIC50: −log10 of the molar value.

Key:
[1] = molecular target: T1, Avi-KRAS G12V (1-169) GppNHp/RAF1 RBD-3xFLAG (52-151) (Homo sapiens, UniProt P01116, G12V); experiment: Raf1-KRAS G12V-GppNHP disruption HTRF assay (Biological Example 1); type: binding
T1 construct: Avi-KRAS G12V (1-169)
How it was run: (§1)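 Compounds were tested for disruption of KRAS–RAF1 RBD binding by HTRF in 50 mM Tris pH 7.5, 100 mM NaCl, 5 mM MgCl2, 0.1% BSA, 0.01% Tween, 10% DMSO. Protein mix was incubated 1 h at room temperature with shaking, then detection reagents added for another 1 h. Activity expressed as percent of DMSO control.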

[2] = molecular target: T2, Avi-KRAS WT (1-169) GppNHp/RAF1 RBD-3xFLAG (52-151) (Homo sapiens, UniProt P01116); experiment: Raf1-KRAS WT-GppNHP disruption HTRF assay (Biological Example 1); type: binding
T2 construct: Avi-KRAS WT (1-169)
How it was run: as §1

[3] = molecular target: T3, Avi-KRAS G12D (2-169) GTP/RAF1 RBD-3xFLAG (51-131) (Homo sapiens, UniProt P01116, G12D); experiment: Raf1-KRAS G12D-GTP disruption HTRF assay (Biological Example 3); type: binding; settings: KRAS G12D, GTP-loaded
T3 construct: Avi-KRAS G12D (2-169)
How it was run: (§2)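 Each KRAS-GTP/RAF1 RBD complex at 50 nM, with 75 nM 3xFLAG-RAF1 RBD (51-131)-Avi, in 50 mM Tris pH 7.5, 100 mM NaCl, 5 mM MgCl2, 0.1% BSA, 0.01% Tween 20, 10% DMSO. Compounds titrated from 30 μM, 10-point 3x series; 1 h at room temperature with shaking. HTRF read, activity as percent of DMSO.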

[4] = molecular target: T4, Avi-KRAS G12V (2-169) GTP/RAF1 RBD-3xFLAG (51-131) (Homo sapiens, UniProt P01116, G12V); experiment: Raf1-KRAS G12V-GTP disruption HTRF assay (Biological Example 3); type: binding; settings: KRAS G12V, GTP-loaded
T4 construct: Avi-KRAS G12V (2-169)
How it was run: as §2

[5] = test system: SW620 cells (KRAS G12V); experiment: Cell-based pERK HTRF assay in SW620 cell (Biological Example 4)
How it was run: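 This assay measures inhibition of ERK phosphorylation downstream of KRAS G12V in intact SW620 cells. Compounds are applied for 4 h over nine half-log concentrations starting at 1 μM, and pERK is quantified by HTRF.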

[6] = KRAS G12V, GppNHp-loaded, class symbols
[7] = KRAS WT, GppNHp-loaded, class symbols
[8] = Homo sapiens, SW-620, SW620 (KRAS G12V) cells
[9] = Homo sapiens, SW-620, SW620 (KRAS G12V) cells, pERK HTRF, class symbols
[10] = Homo sapiens, SW-620, SW620 (KRAS G12V) cells, pERK HTRF
[11] = SW620 (KRAS G12V) cells, pERK HTRF
[12] = KRAS G12V, GppNHp-loaded, Table 11
[13] = KRAS WT, GppNHp-loaded, Table 11

T4 sequence (P01116 2-169 isoform P01116-2 G12V): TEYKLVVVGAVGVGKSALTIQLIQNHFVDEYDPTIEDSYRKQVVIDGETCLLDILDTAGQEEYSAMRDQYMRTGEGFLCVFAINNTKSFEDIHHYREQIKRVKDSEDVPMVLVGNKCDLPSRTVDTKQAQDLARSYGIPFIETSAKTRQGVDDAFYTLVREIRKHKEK
T3 sequence (P01116 2-169 isoform P01116-2 G12D): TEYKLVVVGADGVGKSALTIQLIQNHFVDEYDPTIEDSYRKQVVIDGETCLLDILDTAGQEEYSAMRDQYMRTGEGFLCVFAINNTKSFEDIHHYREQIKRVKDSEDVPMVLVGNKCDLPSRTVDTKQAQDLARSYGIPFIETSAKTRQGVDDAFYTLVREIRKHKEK
T1 sequence (P01116 1-169 isoform P01116-2 G12V): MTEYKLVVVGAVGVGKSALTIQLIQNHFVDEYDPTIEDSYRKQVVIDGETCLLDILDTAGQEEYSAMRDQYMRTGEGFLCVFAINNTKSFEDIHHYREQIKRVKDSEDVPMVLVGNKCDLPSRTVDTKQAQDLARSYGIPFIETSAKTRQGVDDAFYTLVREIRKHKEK
T2 sequence (P01116 1-169 isoform P01116-2): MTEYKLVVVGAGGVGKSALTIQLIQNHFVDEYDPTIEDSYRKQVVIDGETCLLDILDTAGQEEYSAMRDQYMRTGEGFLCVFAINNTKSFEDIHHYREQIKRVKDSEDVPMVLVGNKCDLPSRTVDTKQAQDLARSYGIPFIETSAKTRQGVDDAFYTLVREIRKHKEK

Compound | pIC50 [1, 6] | pIC50 [2, 7] | pIC50 [3] | pIC50 [4] | pIC50 [5, 8] | pIC50 [5, 9] | pIC50 ([1]; KRAS G12V-GppNHp/RAF1 RBD HTRF) | pIC50 ([2]; KRAS WT-GppNHp/RAF1 RBD HTRF) | pIC50 [5, 10] | pIC50 ([5]; SW620 (KRAS G12V) cells) | pIC50 [5, 11] | pIC50 [1, 12] | pIC50 [2, 13]
CCN(c1nc(OC[C@@]23CCCN2C[C@H](F)C3)nc2c(F)c(-c3ccc(F)c4sc(N)c(C#N)c34)c(C(F)(F)F)cc12)[C@@H]1CCN(C(=O)C2CC2)C1 [Compound 329] |  |  | 6.00 to 7.00 | 6.00 to 7.00 | > 7.00 |  | 6.00 to 7.00 | 6.00 to 7.00 | > 7.00 |  |  |  | 
CC(=O)N1C[C@H](N(C)c2nc(OC[C@@]34CCCN3C[C@H](F)C4)nc3c(F)c(-c4ccc(F)c5sc(N)c(C#N)c45)c(C(F)(F)F)cc23)C[C@@H]1C [Compound 298] |  |  | 5.00 to 6.00 | 6.00 to 7.00 | > 7.00 |  | 6.00 to 7.00 | 6.00 to 7.00 | > 7.00 |  |  |  | 
CC(=O)N1CC(N(C)c2nc(OCC34CCCN3CC(F)C4)nc3c(F)c(-c4ccc(F)c5sc(N)c(C#N)c45)c(C(F)(F)F)cc23)CC1C (stereo not drawn) [Compound 291] |  |  | 6.00 to 7.00 | 6.00 to 7.00 |  |  | 6.00 to 7.00 | 6.00 to 7.00 |  | > 7.00 | > 7.00 |  | 
CC(=O)N1CC[C@@H](N(C)c2nc(OC[C@@]34CCCN3C[C@H](F)C4)nc3c(F)c(-c4ccc(F)c5sc(N)c(C#N)c45)c(C(F)(F)F)cc23)[C@H]1C (single isomer, unassigned) [Compound 193] |  |  | 6.00 to 7.00 | 6.00 to 7.00 | > 7.00 |  |  |  |  |  | > 7.00 | > 7.00 | > 7.00
N#Cc1c(N)sc2c(F)ccc(-c3c(C(F)(F)F)cc4c(N5C[C@H]6C[C@@H]5CO6)nc(OC[C@@]56CCCN5C[C@H](F)C6)nc4c3F)c12 (single isomer, unassigned) [Compound 287] |  |  | 6.00 to 7.00 | 6.00 to 7.00 | > 7.00 |  | 6.00 to 7.00 | 6.00 to 7.00 | > 7.00 |  |  |  | 
CCN(c1nc(OC[C@@]23CCCN2C[C@H](F)C3)nc2c(F)c(-c3ccc(F)c4sc(N)c(C#N)c34)c(C(F)(F)F)cc12)[C@H]1CCN(C(=O)OC)C1 [Compound 394] |  |  | 6.00 to 7.00 | 6.00 to 7.00 | > 7.00 |  | > 7.00 | > 7.00 | > 7.00 |  |  |  | 
N#Cc1c(N)sc2c(F)ccc(-c3c(C(F)(F)F)cc4c(N5CC6CC(C5)O6)nc(OC[C@@]56CCCN5C[C@H](F)C6)nc4c3F)c12 [Compound 145] |  |  | 6.00 to 7.00 | 5.00 to 6.00 | > 7.00 |  |  |  | > 7.00 |  |  | 6.00 to 7.00 | 6.00 to 7.00
C[C@@H]1[C@H](N(C)c2nc(OC[C@@]34CCCN3C[C@H](F)C4)nc3c(F)c(-c4ccc(F)c5sc(N)c(C#N)c45)c(C(F)(F)F)cc23)CCN1C(=O)C1CC1 (atropisomer, axis not shown) [Compound 333] |  |  | 6.00 to 7.00 | 6.00 to 7.00 | > 7.00 |  | 6.00 to 7.00 | > 7.00 |  |  | > 7.00 |  | 
CN(c1nc(OC[C@@]23CCCN2C[C@H](F)C3)nc2c(F)c(-c3ccc(F)c4sc(N)c(C#N)c34)c(C(F)(F)F)cc12)[C@H]1C[C@@H](O)C1 [Compound 19, 2-amino-7-fluoro-4-((S)-8-fluoro-2-(((2R,7aS)-2-fluorotetrahydro-1H-pyrrolizin-7a(5H)-yl)methoxy)-4-(((1s,3R)-3-hydroxycyclobutyl)(methyl)amino)-6-(trifluoromethyl)quinazolin-7-yl)benzo[b]thiophene-3-carbonitrile] |  |  | ≥ 7.00 | 6.00 to 7.00 |  |  |  |  |  | > 7.00 | > 7.00 | > 7.00 | > 7.00

Further lines, results first:

pIC50 [1, 6] | pIC50 [2, 7] | pIC50 [3] | pIC50 [4] | pIC50 [5, 8] | pIC50 [5, 9] | pIC50 ([1]; KRAS G12V-GppNHp/RAF1 RBD HTRF) | pIC50 ([2]; KRAS WT-GppNHp/RAF1 RBD HTRF) | pIC50 [5, 10] | pIC50 ([5]; SW620 (KRAS G12V) cells) | pIC50 [5, 11] | pIC50 [1, 12] | pIC50 [2, 13] | Compound
> 7.00 | > 7.00 | ≥ 7.00 | ≥ 7.00 | > 7.00 | > 7.00 |  |  |  |  |  |  |  | CCN(c1nc(OC[C@@]23CCCN2C[C@H](F)C3)nc2c(F)c(-c3ccc(F)c4sc(N)c(C#N)c34)c(C(F)(F)F)cc12)[C@H]1CCN(C(=O)C2CC2(F)F)C1 (stereo partly drawn) [Compound 581]
> 7.00 | > 7.00 | ≥ 7.00 | ≥ 7.00 | > 7.00 | > 7.00 |  |  |  |  |  |  |  | CCN(c1nc(OC[C@@]23CCCN2C[C@H](F)C3)nc2c(F)c(-c3ccc(F)c4sc(N)c(C#N)c34)c(C(F)(F)F)cc12)[C@H]1CCN(C(=O)N(C)C)[C@@H]1C (atropisomer, axis not shown) [Compound 749]
> 7.00 | > 7.00 | 6.00 to 7.00 | 6.00 to 7.00 | > 7.00 | > 7.00 |  |  |  |  |  |  |  | CCN(c1nc(OC[C@@]23CCCN2C[C@H](F)C3)nc2c(F)c(-c3ccc(F)c4sc(N)c(C#N)c34)c(C(F)(F)F)cc12)[C@H]1CCN(C(=O)N2CCN(C(C)=O)CC2)C1 (atropisomer, axis not shown) [Compound 619]
> 7.00 | > 7.00 | ≥ 7.00 | 6.00 to 7.00 | > 7.00 | > 7.00 |  |  |  |  |  |  |  | CCN(c1nc(OC[C@@]23CCCN2C[C@H](F)C3)nc2c(F)c(-c3ccc(F)c4sc(N)c(C#N)c34)c(C(F)(F)F)cc12)[C@H]1C[C@H](COC)N(C(=O)C2CC2)C1 (atropisomer, axis not shown) [Compound 696]
> 7.00 | > 7.00 | 6.00 to 7.00 | 6.00 to 7.00 | > 7.00 | > 7.00 |  |  |  |  |  |  |  | CCN(c1nc(OC[C@@]23CCCN2C[C@H](F)C3)nc2c(F)c(-c3ccc(F)c4sc(N)c(C#N)c34)c(C(F)(F)F)cc12)[C@H]1CC(=O)N(C)C1 (atropisomer, axis not shown) [Compound 614]
6.00 to 7.00 | 6.00 to 7.00 | 6.00 to 7.00 | 6.00 to 7.00 | > 7.00 | > 7.00 |  |  |  |  |  |  |  | C[C@H]1Cn2nc(C(=O)N(C)C)cc2CN1c1nc(OC[C@@]23CCCN2C[C@H](F)C3)nc2c(F)c(-c3ccc(F)c4sc(N)c(C#N)c34)c(C(F)(F)F)cc12 (atropisomer, axis not shown) [Compound 610]
> 7.00 | 6.00 to 7.00 | 6.00 to 7.00 | 6.00 to 7.00 | > 7.00 | > 7.00 |  |  |  |  |  |  |  | CCN(c1nc(OC[C@@]23CCCN2C[C@H](F)C3)nc2c(F)c(-c3ccc(F)c4sc(N)c(C#N)c34)c(C(F)(F)F)cc12)[C@H]1CCN(C(=O)[C@@H]2C[C@@H]2C)C1 (atropisomer, axis not shown) [Compound 689]
6.00 to 7.00 | > 7.00 | 6.00 to 7.00 | 6.00 to 7.00 | > 7.00 | > 7.00 |  |  |  |  |  |  |  | CCN(c1nc(OC[C@@]23CCCN2C[C@H](F)C3)nc2c(F)c(-c3ccc(F)c4sc(N)c(C#N)c34)c(C(F)(F)F)cc12)[C@H]1C[C@@H](C)N(C(=O)C2COC2)C1 (atropisomer, axis not shown) [Compound 586]
> 7.00 | > 7.00 | ≥ 7.00 | ≥ 7.00 | > 7.00 | > 7.00 |  |  |  |  |  |  |  | CCN(c1nc(OC[C@@]23CCCN2C[C@H](F)C3)nc2c(F)c(-c3ccc(F)c4sc(N)c(C#N)c34)c(C(F)(F)F)cc12)[C@H]1CCN(C(=O)N2CC(F)C2)C1 (atropisomer, axis not shown) [Compound 606]
6.00 to 7.00 | 6.00 to 7.00 | 6.00 to 7.00 | 6.00 to 7.00 | > 7.00 | > 7.00 |  |  |  |  |  |  |  | Cc1c(C(=O)N2CCCC2)nn2c1CN(c1nc(OCC34CCCN3CC(F)C4)nc3c(F)c(-c4ccc(F)c5sc(N)c(C#N)c45)c(C(F)(F)F)cc13)CC2 (stereo not drawn) [Compound 744]
> 7.00 | > 7.00 | ≥ 7.00 | 6.00 to 7.00 | > 7.00 | > 7.00 |  |  |  |  |  |  |  | C=C(C)C(=O)N1CC[C@H](N(CC)c2nc(OC[C@@]34CCCN3C[C@H](F)C4)nc3c(F)c(-c4ccc(F)c5sc(N)c(C#N)c45)c(C(F)(F)F)cc23)C1 (atropisomer, axis not shown) [Compound 673]
> 7.00 | > 7.00 | ≥ 7.00 | 6.00 to 7.00 | > 7.00 | > 7.00 |  |  |  |  |  |  |  | CCN(c1nc(OC[C@@]23CCCN2C[C@H](F)C3)nc2c(F)c(-c3ccc(F)c4sc(N)c(C#N)c34)c(C(F)(F)F)cc12)[C@H]1CCN(C(=O)C2CC2)[C@@H]1C (atropisomer, axis not shown) [Compound 579]
